Data set [1] is described as follows: Photorelease ability in PBS buffer at pH 7.4 assessed as retention time of 4-(6-(2,2-dihydroxyacetyl)-9-ethyl-9H-carbazol-3-yl)-1,3-dioxol-2-one formation at 100 uM irradiated with >= 365 nm Hg lamp for 30 mins by RP-HPLC analysis. The following applies: pH 7.4, 0.5 h. Type of data set: physicochemical.
The test system of data set [2] is HEK293. The data set can be described thus: Induction of apoptosis in HEK293 cells assessed as early apoptotic cells at 5 uM with light irradiation incubated for 24 hrs by annexin-V-FITC and PI staining based flow cytometry analysis (reference value: 0.1 %). The data set is classed as functional, Homo sapiens. On the technique in general: Flow cytometry measures light scatter and fluorescence of single cells or particles in a stream.

In data set [3] the test system is HEK293. The data set can be described thus: Induction of apoptosis in HEK293 cells assessed as viable cells at 5 uM with light irradiation incubated for 24 hrs by annexin-V-FITC and PI staining based flow cytometry analysis (reference value: 99.9 %). The note with it: Homo sapiens, HEK293, light or radiation study, read-out: Activity. Type of data set: functional.

Data set [4] is described as follows: Biodistribution in spleen of C57BL/6 mouse model harboring mouse B16-F10 cells at 0.4 mg/kg, iv irradiated with >= 365 nm Hg lamp for 10 mins measured after 24 hrs post-administration by fluorescence based assay. Type of data set: ADME, organism-based. The note with it: in vivo, 24.17 h, time 1450 min.
Data set [5] relates to HEK293. The data set can be described thus: Induction of apoptosis in HEK293 cells assessed as early apoptotic cells at 5 uM incubated for 24 hrs by annexin-V-FITC and PI staining based flow cytometry analysis (reference value: 0.1 %). Type of data set: functional, Homo sapiens.
Data set [6] in a line: Photorelease activity in PBS buffer at pH 7.4 assessed as 1,1'-(9-ethyl-9H-carbazole-3,6-diyl)bis(2,2-dihydroxyethanone) photoproduct formation by measuring lambda 485 nm green emission band excited at wavelength of 350 nm for 30 mins by fluorescence spectroscopy. The data set is classed as physicochemical. The following applies: pH 7.4, 0.5 h.
Data set [7] is described as follows: Toxicity in C57BL/6J mouse model harboring mouse B16-F10 cells assessed as liver tissue necrosis at 0.4 mg/kg, iv administered alternate days for 24 days followed by irradiation with pulsed laser at 730 nm for 10 mins after 24 hrs each post-injection by hematoxylin and eosin staining based assay. Type of data set: organism-based. The following applies: in vivo, 600 h, 0.73 µM, time 25 day.

Data set [8] in a line: Photorelease ability in PBS buffer at pH 7.4 assessed as retention time of compound decomposition at 100 uM irradiated with >= 365 nm Hg lamp for 30 mins by RP-HPLC analysis. Type of data set: physicochemical. The following applies: pH 7.4, 0.5 h.
Data set [9] is described as follows: Toxicity in C57BL/6J mouse model harboring mouse B16-F10 cells assessed as kidney tissue necrosis at 0.4 mg/kg, iv administered alternate days for 24 days followed by irradiation with pulsed laser at 730 nm for 10 mins after 24 hrs each post-injection by hematoxylin and eosin staining based assay. The data set is classed as organism-based. The following applies: in vivo, 600 h, 0.73 µM, time 25 day.

A short description of data set [10]: Biodistribution in liver of C57BL/6 mouse model harboring mouse B16-F10 cells at 0.4 mg/kg, iv irradiated with >= 365 nm Hg lamp for 10 mins measured after 24 hrs post-administration by fluorescence based assay. The data set is classed as ADME, organism-based. The following applies: in vivo, 24.17 h, time 1450 min.
A short description of data set [11]: Biodistribution in lung of C57BL/6 mouse model harboring mouse B16-F10 cells at 0.4 mg/kg, iv irradiated with >= 365 nm Hg lamp for 10 mins measured after 24 hrs post-administration by fluorescence based assay. The data set is classed as ADME, organism-based. The following applies: in vivo, 24.17 h, time 1450 min.
A short description of data set [12]: Biodistribution in heart of C57BL/6 mouse model harboring mouse B16-F10 cells at 0.4 mg/kg, iv irradiated with >= 365 nm Hg lamp for 10 mins measured after 24 hrs post-administration by fluorescence based assay. Type of data set: ADME, organism-based. The following applies: in vivo, 24.17 h, time 1450 min.
Data set [13] concerns B16-F10. The data set can be described thus: Induction of apoptosis in mouse B16-F10 cells assessed as early apoptotic cells at 5 uM incubated for 24 hrs by annexin-V-FITC and PI staining based flow cytometry analysis (reference value: 0 %). Type of data set: functional.
In data set [14] the test system is HEK293. The data set can be described thus: Induction of apoptosis in HEK293 cells assessed as necrotic cells at 5 uM with light irradiation incubated for 24 hrs by annexin-V-FITC and PI staining based flow cytometry analysis (reference value: 0 %). The data set is classed as functional, Homo sapiens.
The nature of data set [15]: Photorelease activity in PBS buffer at pH 7.4 assessed as release of CO using 3',6'-Bis(allyloxy)-3H-spiro(isobenzofuran-1,9'-xanthen)-3-one fluorescent probe at 500 uM irradiated with >= 365 nm Hg lamp for 30 mins in presence of PdCl2 by absorption spectroscopy. Type of data set: physicochemical. The note with it: pH 7.4, 0.5 h.
Data set [16] can be described thus: Photorelease activity in PBS buffer at pH 7.4 assessed as MbCO formation by measuring change in absorbance intensity at 500 uM irradiated with >= 365 nm Hg lamp for 30 mins in presence of deoxy-myoglobin by absorption spectroscopy. The data set is classed as physicochemical. The note with it: pH 7.4, 0.5 h.
Data set [17] has as its system HEK293. The data set can be described thus: Induction of apoptosis in HEK293 cells assessed as late apoptotic cells at 5 uM with light irradiation incubated for 24 hrs by annexin-V-FITC and PI staining based flow cytometry analysis (reference value: 0 %). Type of data set: functional, Homo sapiens.
For data set [18], the system named is B16-F10. The data set can be described thus: Induction of apoptosis in mouse B16-F10 cells assessed as necrotic cells at 5 uM with light irradiation incubated for 24 hrs by annexin-V-FITC and PI staining based flow cytometry analysis (reference value: 0 %). The data set is classed as functional.
For data set [19], the system named is B16-F10. The data set can be described thus: Induction of apoptosis in mouse B16-F10 cells assessed as viable cells at 5 uM with light irradiation incubated for 24 hrs by annexin-V-FITC and PI staining based flow cytometry analysis (reference value: 99.9 %). The data set is classed as functional. The note with it: B16-F10, light or radiation study, read-out: Activity.

Data set [20] relates to B16-F10. The data set can be described thus: Induction of apoptosis in mouse B16-F10 cells assessed as late apoptotic cells at 5 uM with light irradiation incubated for 24 hrs by annexin-V-FITC and PI staining based flow cytometry analysis (reference value: 0.1 %). Type of data set: functional.
Data set [21] can be described thus: Stability of compound in PBS buffer at pH 7.4 at 100 uM incubated for 72 hrs under dark condition in presence of cysteine by Reverse-phase HPLC analysis. The following applies: read-out: Stability. Type of data set: physicochemical.
The subject of data set [22] is B16-F10. The data set can be described thus: Antitumor activity against mouse B16-F10 cells bearing C57BL/6J mouse assessed as tumor growth inhibition at 0.4 mg/kg, iv administered alternate days for 24 days followed by irradiation with pulsed laser at 730 nm for 10 mins after 24 hrs each post-injection by slide caliper method. The data set is classed as functional, organism-based. The note with it: time 25.0 day.

Data set [23] is described as follows: Toxicity in C57BL/6J mouse model harboring mouse B16-F10 cells assessed as tumor tissue necrosis at 0.4 mg/kg, iv administered alternate days for 24 days followed by irradiation with pulsed laser at 730 nm for 10 mins after 24 hrs each post-injection by hematoxylin and eosin staining based assay. The data set is classed as organism-based. The following applies: in vivo, 600 h, 0.73 µM, time 25 day.

Data set [24] relates to HEK293. The data set can be described thus: Induction of apoptosis in HEK293 cells assessed as viable cells at 5 uM incubated for 24 hrs by annexin-V-FITC and PI staining based flow cytometry analysis (reference value: 99.9 %). Type of data set: functional. The following applies: Homo sapiens, read-out: Activity.

Activity calls are given as the source filed them. The rule behind the calls is not given here.

In the case of `CCn1c2ccc(-c3coc(=O)o3)cc2c2cc(-c3coc(=O)o3)ccc21`, the Retention_time stood at 8.05 min in data set [1] and 6.21 min in data set [8]. The Activity in the data set with HEK293 [2] was 46.3%; in the data set on HEK293 [5], 0.9%; in data set [7], “Non-Toxic”; in data set [9], “Non-Toxic”; with B16-F10 [13], 1%; with HEK293 [14], 0%. In addition, the Activity in the data set on HEK293 [17] is on record as 7.3%; in the data set on B16-F10 [18], 0.5%; in the data set with B16-F10 [20], 15.4%; in [23], “Toxic”. Moreover, the results for the viability at 5 µM in the data set on HEK293 [3], in the data set with B16-F10 [19] and with HEK293 [24] were 46.4%, 51.4% and 98.9%, respectively. Further, the Drug uptake result in data set [4], in [10], in [11] and in [12] was “Active” throughout. Besides, the Drug metabolism entry in [6] is recorded as “Active”; in [15], 12 ppm; in [16], “Active”. In addition, the remaining at 72 h, 100 µM in [21] came to 92%. In the data set with B16-F10 [22], the result was Active.
